Active and inactive are the calls of the source. The rule behind the calls is not given here.
Assays:
[1] = biological target: T1, Solute carrier family 22 member 12 (Homo sapiens, UniProt Q96S37); experiment: Inhibition of human URAT1 transfected in HEK293 cells by measuring 14C-uric acid uptake at 5 uM preincubated for 30 mins followed by 14--uric acid addition and measured after 15 mins by liquid scintillation counter analysis relative to control; assay type: cell-based; conditions: 0.25 h, time 45 min
T1 sequence (Q96S37 whole entry): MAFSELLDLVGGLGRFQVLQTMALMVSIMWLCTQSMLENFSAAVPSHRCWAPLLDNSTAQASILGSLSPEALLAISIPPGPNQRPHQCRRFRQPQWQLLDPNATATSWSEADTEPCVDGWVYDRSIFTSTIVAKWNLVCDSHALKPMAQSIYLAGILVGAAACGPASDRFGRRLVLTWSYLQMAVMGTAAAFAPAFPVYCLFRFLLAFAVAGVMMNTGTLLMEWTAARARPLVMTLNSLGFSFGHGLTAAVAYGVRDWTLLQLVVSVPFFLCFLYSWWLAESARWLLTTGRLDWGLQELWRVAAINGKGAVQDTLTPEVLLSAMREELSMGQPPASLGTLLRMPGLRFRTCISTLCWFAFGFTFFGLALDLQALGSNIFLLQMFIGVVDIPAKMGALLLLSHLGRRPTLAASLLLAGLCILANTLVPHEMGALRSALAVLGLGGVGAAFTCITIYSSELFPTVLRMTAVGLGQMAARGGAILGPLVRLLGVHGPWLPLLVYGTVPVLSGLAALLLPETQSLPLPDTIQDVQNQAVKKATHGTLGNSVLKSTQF

[2] = biological target: T1, Solute carrier family 22 member 12; experiment: Inhibition of human URAT1 transfected in HEK293 cells by measuring 14C-uric acid uptake preincubated for 30 mins followed by 14--uric acid addition and measured after 15 mins by liquid scintillation counter analysis; assay type: cell-based
Mus musculus [3] = experiment: Anti-hyperuricemic activity against potassium oxonate-induced male Kunming mouse model assessed as alleviation of glomerular ischemia in kidney at 10 mg/kg, po via gavage administered 1 hr post-potassium oxonate challenge and measured after 7 days on day 7 potassium oxonate injected after 12 hrs fasting and measured followed by 1.5 hrs of compound administration by H and E staining based analysis; assay type: functional, organism-based; conditions: time 7.0 day
[4] = Renal toxicity in potassium oxonate-induced male Kunming mouse model assessed as reduction in BUN level in serum at 10 mg/kg,po via gavage administered 1 hr post-potassium oxonate challenge and measured after 7 days on day 7 potassium oxonate injected after 12 hrs fasting and measured followed by 1.5 hrs of compound administration by biochemical analyzer; assay type: organism-based; conditions: in vivo, 168 h, time 7 day
Mus musculus [5] = experiment: Anti-hyperuricemic activity against potassium oxonate-induced male Kunming mouse model assessed as alleviation of casts formation in kidney at 10 mg/kg, po via gavage administered 1 hr post-potassium oxonate challenge and measured after 7 days on day 7 potassium oxonate injected after 12 hrs fasting and measured followed by 1.5 hrs of compound administration by H and E staining based analysis; assay type: functional, organism-based; conditions: time 7.0 day
Mus musculus [6] = experiment: Anti-hyperuricemic activity against potassium oxonate-induced male Kunming mouse model assessed as increase in urine uric acid level at 10 mg/kg, po via gavage administered 1 hr post-potassium oxonate challenge and measured after 7 days on day 7 potassium oxonate injected after 12 hrs fasting and measured followed by 1.5 hrs of compound administration (reference value: 481.6 microM); assay type: functional
Mus musculus [7] = experiment: Anti-hyperuricemic activity against potassium oxonate-induced male Kunming mouse model assessed as alleviation of renal tubule dilatation at 10 mg/kg, po via gavage administered 1 hr post-potassium oxonate challenge and measured after 7 days on day 7 potassium oxonate injected after 12 hrs fasting and measured followed by 1.5 hrs of compound administration by H and E staining based analysis; assay type: functional, organism-based; conditions: time 7.0 day
Mus musculus [8] = experiment: Anti-hyperuricemic activity against potassium oxonate-induced male Kunming mouse model assessed as alleviation of shrinkage in kidney at 10 mg/kg, po via gavage administered 1 hr post-potassium oxonate challenge and measured after 7 days on day 7 potassium oxonate injected after 12 hrs fasting and measured followed by 1.5 hrs of compound administration by H and E staining based analysis; assay type: functional, organism-based; conditions: time 7.0 day
Mus musculus [9] = experiment: Anti-hyperuricemic activity against potassium oxonate-induced male Kunming mouse model assessed as reduction in serum uric acid level at 10 mg/kg, po via gavage administered 1 hr post-potassium oxonate challenge and measured after 7 days on day 7 potassium oxonate injected after 12 hrs fasting and measured followed by 1.5 hrs of compound administration; assay type: functional; conditions: time 7 day
[10] = biological target: T2, Solute carrier family 2, facilitated glucose transporter member 9 (Homo sapiens) (UniProt Q9NRM0); experiment: Inhibition of GLUT9 (unknown origin) overexpressed in uric acid-induced HEK293 cells at 25 uM by patch clamp analysis relative to control; assay type: cell-based
T2 sequence (whole entry): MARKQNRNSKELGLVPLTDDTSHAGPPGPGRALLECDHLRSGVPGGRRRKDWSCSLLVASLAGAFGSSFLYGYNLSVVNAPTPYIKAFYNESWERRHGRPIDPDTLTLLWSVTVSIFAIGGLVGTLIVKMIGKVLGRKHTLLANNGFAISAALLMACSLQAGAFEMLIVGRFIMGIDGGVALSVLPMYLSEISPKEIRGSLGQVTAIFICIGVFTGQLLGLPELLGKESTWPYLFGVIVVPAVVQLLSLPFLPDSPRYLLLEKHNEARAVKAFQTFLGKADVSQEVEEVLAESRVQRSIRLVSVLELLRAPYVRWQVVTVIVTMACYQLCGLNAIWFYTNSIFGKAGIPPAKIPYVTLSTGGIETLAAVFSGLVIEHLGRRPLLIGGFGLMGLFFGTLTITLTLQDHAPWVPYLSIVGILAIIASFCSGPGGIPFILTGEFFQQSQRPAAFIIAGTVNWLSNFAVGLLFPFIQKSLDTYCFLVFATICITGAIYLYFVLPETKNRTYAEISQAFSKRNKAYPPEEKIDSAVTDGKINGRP

[11] = Renal toxicity in potassium oxonate-induced male Kunming mouse model assessed as effect on kidney damage at 10 mg/kg,po via gavage administered 1 hr post-potassium oxonate challenge and measured after 7 days on day 7 potassium oxonate injected after 12 hrs fasting and measured followed by 1.5 hrs of compound administration; assay type: organism-based; conditions: in vivo, 168 h, time 7 day
HK-2 [12] = experiment: Cytotoxicity against human HK-2 cells assessed as cell viability at <100 uM incubated for 24 hrs by MTT assay; assay type: toxicity, cell-based; conditions: hk-2, 24 h
[13] = Renal toxicity in potassium oxonate-induced male Kunming mouse model assessed as reduction in CR level in serum at 10 mg/kg,po via gavage administered 1 hr post-potassium oxonate challenge and measured after 7 days on day 7 potassium oxonate injected after 12 hrs fasting and measured followed by 1.5 hrs of compound administration by biochemical analyzer; assay type: organism-based; conditions: in vivo, 168 h, time 7 day
HK-2 [14] = experiment: Cytotoxicity against human HK-2 cells assessed as cell viability at 100 uM incubated for 48 hrs by MTT assay; assay type: toxicity, cell-based; conditions: hk-2, 48 h
[15] = Tmax in male Sprague-Dawley rat at 10 mg/kg, po measured after 24 hrs by LC-MS/MS analysis; assay type: ADME, organism-based; conditions: in vivo
[16] = MRT (0 to infinity) in male Sprague-Dawley rat at 10 mg/kg, po measured after 24 hrs by LC-MS/MS analysis; assay type: ADME, organism-based; conditions: in vivo
[17] = AUC (0 to infinity) in male Sprague-Dawley rat at 10 mg/kg, po measured after 24 hrs by LC-MS/MS analysis; assay type: ADME, organism-based; conditions: in vivo
[18] = Half life in male Sprague-Dawley rat at 10 mg/kg, po measured after 24 hrs by LC-MS/MS analysis; assay type: ADME, organism-based; conditions: in vivo
[19] = Cmax in male Sprague-Dawley rat at 10 mg/kg, po measured after 24 hrs by LC-MS/MS analysis; assay type: ADME, organism-based; conditions: in vivo

SMILES: CC(C)=CCc1c(O)ccc2c1OC(c1ccc(F)cc1)CC2=O (stereo not given)
- inhibition at 5 µM [1]: 4.4%

SMILES: O=C(O)/C=C/Cc1cccc2c1OC(c1cc3ccccc3s1)CC2=O (stereo not given)
- IC50 [2]: 1890 nM

SMILES: CC(C)=CCc1c(O)ccc2c1OC(c1csc3ccccc13)CC2=O (stereo not given)
- inhibition at 5 µM [1]: 32%

SMILES: O=C(O)/C=C/Cc1cccc2c1OC(c1ccc(O)cc1)CC2=O (stereo not given)
- IC50 [2]: 4240 nM

SMILES: O=C(O)CCCc1c(O)ccc2c1OC(c1cccs1)CC2=O (stereo not given)
- IC50 [2]: 2410 nM

SMILES: Cc1ccc2c(c1C/C=C/S(=O)(=O)c1ccccc1)OC(c1ccsc1)CC2=O (stereo not given)
- IC50 [2]: 4430 nM

SMILES: C/C(=C\Cc1cccc2c1OC(c1ccc(O)cc1)CC2=O)C(=O)O (stereo not given)
- IC50 [2]: 2680 nM

SMILES: CC(C)=CCc1c(O)ccc2c1OC(c1cc3ccccc3s1)CC2=O (stereo not given)
- inhibition at 5 µM [1]: 13.4%

SMILES: C/C(=C\Cc1c(O)ccc2c1OC(c1ccc(Br)cc1)CC2=O)C(=O)O (stereo not given)
- IC50 [2]: 830 nM

SMILES: O=C(O)/C=C/Cc1cccc2c1OC(c1cccs1)CC2=O (stereo not given)
- IC50 [2]: 2500 nM

SMILES: O=C(O)/C=C/Cc1c(O)ccc2c1OC(c1ccc(O)cc1)CC2=O (stereo not given)
- IC50 [2]: 3020 nM

SMILES: O=C(O)/C=C/Cc1c(O)ccc2c1OC(c1cccs1)CC2=O (stereo not given)
- IC50 [2]: 2180 nM

SMILES: CC(C)=CCc1c(O)ccc2c1OC(c1cccs1)CC2=O (stereo not given)
- inhibition at 5 µM [1]: 19.8%

SMILES: C/C(=C\Cc1c(O)ccc2c1OC(c1ccsc1)CC2=O)C(=O)O (stereo not given)
- IC50 [2]: 650 nM

SMILES: C/C(=C\Cc1c(O)ccc2c1OC(c1csc3ccccc13)CC2=O)C(=O)O (stereo not given)
- Activity (Mus musculus [3]): Active
- Activity [4]: Non-Toxic
- Activity (Mus musculus [5]): Active
- Activity (Mus musculus [6]; time 7 day): 599.6 µM
- Activity (Mus musculus [7]): Active
- Activity (Mus musculus [8]): Active
- IC50 [2]: 230 nM
- Activity (Mus musculus [9]): 392.02 µM
- inhibition [10]: 8.33%
- Activity [11]: Non-Toxic
- Activity (HK-2 [12]): Toxic
- Activity [13]: Non-Toxic
- Activity (HK-2 [14]): Non-Toxic

SMILES: C/C(=C\Cc1c(O)ccc2c1OC(c1ccc(Br)c3ccccc13)CC2=O)C(=O)O (stereo not given)
- Activity (Mus musculus [3]): Active
- Tmax [15]: 1.5 h
- MRT inf [16]: 7.54 h
- Activity [4]: Non-Toxic
- Activity (Mus musculus [5]): Active
- Activity (Mus musculus [6]; time 7.0 day): Active
- Activity (Mus musculus [7]): Active
- Activity (Mus musculus [8]): Active
- AUC(0-inf) [17]: 8270 ng·h/mL
- IC50 [2]: 190 nM
- Activity (Mus musculus [9]): 397.87 µM
- inhibition [10]: 8.21%
- Activity [11]: Non-Toxic
- half-life [18]: 4.66 h
- Activity (HK-2 [12]): Toxic
- Cmax [19]: 1380 ng/mL
- Activity [13]: Non-Toxic
- Activity (HK-2 [14]): Non-Toxic

SMILES: O=C(O)/C=C/Cc1cccc2c1OC(c1ccc(Br)c3ccccc13)CC2=O (stereo not given)
- IC50 [2]: 730 nM

SMILES: CC(C)=CCc1c(O)ccc2c1OC(c1ccsc1)CC2=O (stereo not given)
- inhibition at 5 µM [1]: 72.3%

SMILES: C/C(=C\Cc1c(O)ccc2c1OC(c1ccc(O)cc1)CC2=O)C(=O)O (stereo not given)
- IC50 [2]: 2110 nM

SMILES: C/C(=C\Cc1c(O)ccc2c1OC(c1ccc(Cl)cc1)CC2=O)C(=O)O (stereo not given)
- IC50 [2]: 2860 nM

SMILES: C/C(=C\Cc1cccc2c1OC(c1csc3ccccc13)CC2=O)C(=O)O (stereo not given)
- IC50 [2]: 950 nM

SMILES: O=C(O)C/C=C/Cc1c(O)ccc2c1OC(c1csc3ccccc13)CC2=O (stereo not given)
- IC50 [2]: 650 nM

SMILES: CC(C)=CCc1c(O)ccc2c1OC(c1cccc(F)c1)CC2=O (stereo not given)
- inhibition at 5 µM [1]: 22.7%

SMILES: O=C(O)CSc1nnc(Br)n1-c1ccc(C2CC2)c2ccccc12
- Activity (Mus musculus [3]): inactive
- Activity [4]: Non-Toxic
- Activity (Mus musculus [5]): inactive
- Activity (Mus musculus [6]; time 7 day): 696.8 µM
- Activity (Mus musculus [7]): inactive
- Activity (Mus musculus [8]): inactive
- Activity (Mus musculus [9]): 380.14 µM
- Activity [11]: Non-Toxic
- Activity [13]: Non-Toxic

SMILES: C/C(=C\Cc1cccc2c1OC(c1cc3ccccc3s1)CC2=O)C(=O)O (stereo not given)
- IC50 [2]: 1640 nM

SMILES: C/C(=C\Cc1cccc2c1OC(c1cccs1)CC2=O)C(=O)O (stereo not given)
- Activity (Mus musculus [3]): Active
- Tmax [15]: 0.83 h
- MRT inf [16]: 11.4 h
- Activity [4]: Non-Toxic
- Activity (Mus musculus [5]): Active
- Activity (Mus musculus [6]; time 7 day): 648.21 µM
- Activity (Mus musculus [7]): Active
- Activity (Mus musculus [8]): Active
- AUC(0-inf) [17]: 14700 ng·h/mL
- IC50 [2]: 860 nM
- Activity (Mus musculus [9]): 317.1 µM
- inhibition [10]: 22.7%
- Activity [11]: Non-Toxic
- half-life [18]: 5.14 h
- Activity (HK-2 [12]): Toxic
- Cmax [19]: 2090 ng/mL
- Activity [13]: Non-Toxic
- Activity (HK-2 [14]): Non-Toxic

SMILES: O=C(O)/C=C/Cc1cccc2c1OC(c1ccsc1)CC2=O (stereo not given)
- IC50 [2]: 3590 nM

SMILES: CC(C)=CCc1c(O)ccc2c1OC(c1ccc(Cl)cc1)CC2=O (stereo not given)
- inhibition at 5 µM [1]: 11.3%

SMILES: C/C(=C\Cc1cccc2c1OC(c1ccsc1)CC2=O)C(=O)O (stereo not given)
- IC50 [2]: 2180 nM

SMILES: CC(C)=CCc1c(O)ccc2c1OC(c1ccc(Br)cc1)CC2=O (stereo not given)
- inhibition at 5 µM [1]: 32.2%

SMILES: C/C(=C\Cc1cccc2c1OC(c1cc(Br)cs1)CC2=O)C(=O)O (stereo not given)
- IC50 [2]: 980 nM

From ChEMBL document CHEMBL5614401 (Eur J Med Chem, 2024)
